From ChEMBL document CHEMBL6178016, “Design, Synthesis, and Biological Evaluation of New PDE4 Inhibitors for the Treatment of Pressure Ulcers” (J Med Chem, 2025)
The source made the active and inactive calls. No cut-off for these calls is given here.

Experiments:
RAW264.7 [1] = assay: Cytotoxicity against mouse RAW264.7 cells measured after 24 hrs by CCK-8 method; type: functional
Cytochrome P450 2C9 = Cytochrome P450 2C9 (Homo sapiens, UniProt P11712); assay: Inhibition of human CYP2C9; type: ADME
Chain of Cytochrome P450 2C9 (P11712 whole entry): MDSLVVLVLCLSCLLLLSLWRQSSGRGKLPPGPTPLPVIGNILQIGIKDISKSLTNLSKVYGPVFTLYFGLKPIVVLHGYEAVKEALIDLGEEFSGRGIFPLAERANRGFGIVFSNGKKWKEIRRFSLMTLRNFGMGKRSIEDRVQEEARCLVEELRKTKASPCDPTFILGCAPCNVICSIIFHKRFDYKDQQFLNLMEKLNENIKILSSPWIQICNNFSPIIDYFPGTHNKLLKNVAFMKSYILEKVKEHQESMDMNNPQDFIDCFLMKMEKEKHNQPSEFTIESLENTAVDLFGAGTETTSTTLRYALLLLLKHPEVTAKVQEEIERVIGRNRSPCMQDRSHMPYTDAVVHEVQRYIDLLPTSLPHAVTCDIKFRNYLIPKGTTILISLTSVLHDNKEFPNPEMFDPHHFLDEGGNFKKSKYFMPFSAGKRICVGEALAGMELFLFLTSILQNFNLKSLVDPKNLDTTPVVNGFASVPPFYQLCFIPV

[2] = C0 in Sprague-Dawley rat at 5 mg/kg, iv; type: ADME, organism-based; settings: in vivo
Rattus norvegicus [3] = assay: Antiinflammatory activity against male Sprague-Dawley rat pressure ulcer model assessed as increase in number of fibroblasts at 0.625 to 2.5% administered as ointment by H and E staining based analysis; type: functional, organism-based
[4] = Oral bioavailability in Sprague-Dawley rat at 10 mg/kg; type: ADME, organism-based; settings: in vivo
[5] = Tmax in Sprague-Dawley rat at 10 mg/kg, po; type: ADME, organism-based; settings: in vivo
[6] = Acute toxicity in male Kunming mouse assessed as effect on pathological changes in kidney at 500 to 4000 mg/kg measured after 14 days by H and E staining based analysis; type: organism-based; settings: in vivo, 336 h, dose 500-4000 mg/kg, time 14 day
HUVEC = assay: Inhibition of cell migration in HUVEC cells; type: functional, cell-based; settings: Homo sapiens, dose 5-20 µM
[7] = biological target: cGMP-specific 3',5'-cyclic phosphodiesterase (Homo sapiens, UniProt O76074); assay: Inhibition of PDE5A (unknown origin)
Rattus norvegicus [8] = assay: Antiinflammatory activity against male Sprague-Dawley rat pressure ulcer model assessed as wound healing rate at 1.25% administration as ointment measured after 7 days (reference value: 70%); type: functional; settings: time 7 day
[9] = AUC (0 to infinity) in Sprague-Dawley rat at 10 mg/kg, po; type: ADME, organism-based; settings: in vivo
[10] = biological target: 3',5'-cyclic-AMP phosphodiesterase 4D (Homo sapiens, UniProt Q08499); assay: Inhibition of PDE4D (unknown origin)
Chain of 3',5'-cyclic-AMP phosphodiesterase 4D (Q08499 whole entry): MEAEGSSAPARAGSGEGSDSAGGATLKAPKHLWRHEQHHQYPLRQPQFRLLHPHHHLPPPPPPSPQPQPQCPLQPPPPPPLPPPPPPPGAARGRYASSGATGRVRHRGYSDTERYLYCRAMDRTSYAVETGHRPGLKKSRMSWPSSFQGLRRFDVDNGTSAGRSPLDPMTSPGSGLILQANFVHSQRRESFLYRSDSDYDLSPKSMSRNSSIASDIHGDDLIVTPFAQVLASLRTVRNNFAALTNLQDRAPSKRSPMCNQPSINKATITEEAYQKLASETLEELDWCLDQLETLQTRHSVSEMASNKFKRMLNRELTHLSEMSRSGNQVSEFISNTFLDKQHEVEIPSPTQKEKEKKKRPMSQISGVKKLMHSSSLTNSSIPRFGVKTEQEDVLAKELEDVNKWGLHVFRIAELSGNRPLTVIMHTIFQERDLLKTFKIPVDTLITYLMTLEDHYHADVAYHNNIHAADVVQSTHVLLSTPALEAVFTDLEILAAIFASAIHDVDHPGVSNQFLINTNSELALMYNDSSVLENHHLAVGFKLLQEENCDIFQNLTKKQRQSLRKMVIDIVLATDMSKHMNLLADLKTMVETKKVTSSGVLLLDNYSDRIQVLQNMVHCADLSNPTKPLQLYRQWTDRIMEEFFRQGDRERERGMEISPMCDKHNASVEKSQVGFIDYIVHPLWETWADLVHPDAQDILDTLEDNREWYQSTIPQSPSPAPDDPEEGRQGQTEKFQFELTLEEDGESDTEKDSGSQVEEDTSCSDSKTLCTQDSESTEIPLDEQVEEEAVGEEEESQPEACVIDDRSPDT

Rattus norvegicus [11] = assay: Antiinflammatory activity against male Sprague-Dawley rat pressure ulcer model assessed as appearance of orderly arranged cells at 0.625 to 2.5% administered as ointment by Masson staining based analysis; type: functional, organism-based
Rattus norvegicus [12] = assay: Antiinflammatory activity against male Sprague-Dawley rat pressure ulcer model assessed as reduction in TNF-alpha mRNA expression in skin at 1.25% administered as ointment by qRT-PCR analysis; type: functional, organism-based
Rattus norvegicus [13] = assay: Antiinflammatory activity against male Sprague-Dawley rat pressure ulcer model assessed as wound healing rate at 2.5% administration as ointment measured after 7 days (reference value: 70%); type: functional; settings: time 7 day
Rattus norvegicus [14] = assay: Antiinflammatory activity against male Sprague-Dawley rat pressure ulcer model assessed as decrease in inflammatory cells in dermis at 0.625 to 2.5% administered as ointment by Masson staining based analysis; type: functional, organism-based
RAW264.7 [15] = assay: Antiinflammatory activity against mouse RAW264.7 cells assessed as increase in cAMP expression at 5 to 20 uM by […] analysis; type: functional, cell-based; settings: dose 5-20 µM
RAW264.7 [16] = assay: Antiinflammatory activity against mouse RAW264.7 cells assessed as inhibition of LPS-induced TNF-alpha release preincubated for 2 hrs followed by LPS stimulation and measured after 4 hrs by RT-PCR analysis; type: functional, cell-based
[17] = Acute toxicity in female Kunming mouse assessed as effect on pathological changes in lung at 500 to 4000 mg/kg measured after 14 days by H and E staining based analysis; type: organism-based; settings: in vivo, 336 h, dose 500-4000 mg/kg, time 14 day
[18] = Acute toxicity in male Kunming mouse assessed as effect on pathological changes in lung at 500 to 4000 mg/kg measured after 14 days by H and E staining based analysis; type: organism-based; settings: in vivo, 336 h, dose 500-4000 mg/kg, time 14 day
[19] = AUC (0 to infinity) in Sprague-Dawley rat at 5 mg/kg, iv; type: ADME, organism-based; settings: in vivo
[20] = biological target: cGMP-inhibited 3',5'-cyclic phosphodiesterase 3A (Homo sapiens, UniProt Q14432); assay: Inhibition of PDE3A (unknown origin)
Chain of cGMP-inhibited 3',5'-cyclic phosphodiesterase 3A (Q14432 whole entry): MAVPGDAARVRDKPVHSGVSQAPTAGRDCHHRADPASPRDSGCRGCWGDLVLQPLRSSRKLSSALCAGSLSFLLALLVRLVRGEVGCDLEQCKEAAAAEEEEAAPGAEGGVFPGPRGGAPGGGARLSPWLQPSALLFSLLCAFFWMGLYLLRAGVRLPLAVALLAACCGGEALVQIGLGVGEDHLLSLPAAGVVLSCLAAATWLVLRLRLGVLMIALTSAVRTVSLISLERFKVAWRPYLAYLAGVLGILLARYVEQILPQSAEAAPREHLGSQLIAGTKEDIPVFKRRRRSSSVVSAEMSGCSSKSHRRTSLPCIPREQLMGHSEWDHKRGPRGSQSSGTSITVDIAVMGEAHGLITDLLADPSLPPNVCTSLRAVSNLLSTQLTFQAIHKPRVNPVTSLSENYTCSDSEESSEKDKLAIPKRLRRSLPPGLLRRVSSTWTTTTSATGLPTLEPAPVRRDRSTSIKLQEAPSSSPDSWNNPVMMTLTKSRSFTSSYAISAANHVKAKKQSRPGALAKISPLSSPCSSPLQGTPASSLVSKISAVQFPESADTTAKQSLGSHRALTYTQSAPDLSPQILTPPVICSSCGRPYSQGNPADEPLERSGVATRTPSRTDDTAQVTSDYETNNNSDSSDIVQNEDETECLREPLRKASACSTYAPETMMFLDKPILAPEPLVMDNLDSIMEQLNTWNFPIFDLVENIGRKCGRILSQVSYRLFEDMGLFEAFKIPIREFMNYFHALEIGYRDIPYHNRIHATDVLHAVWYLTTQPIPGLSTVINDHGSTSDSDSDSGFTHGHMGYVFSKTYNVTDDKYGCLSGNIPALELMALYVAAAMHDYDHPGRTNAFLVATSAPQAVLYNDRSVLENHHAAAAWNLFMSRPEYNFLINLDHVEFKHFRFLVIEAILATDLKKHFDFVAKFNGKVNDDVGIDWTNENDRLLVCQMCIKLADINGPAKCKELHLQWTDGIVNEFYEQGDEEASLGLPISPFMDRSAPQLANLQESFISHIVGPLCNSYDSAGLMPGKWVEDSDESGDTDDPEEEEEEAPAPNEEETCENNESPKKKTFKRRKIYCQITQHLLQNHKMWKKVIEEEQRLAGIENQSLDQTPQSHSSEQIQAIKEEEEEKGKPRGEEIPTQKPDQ

[21] = Acute toxicity in male Kunming mouse assessed as effect on pathological changes in spleen at 500 to 4000 mg/kg measured after 14 days by H and E staining based analysis; type: organism-based; settings: in vivo, 336 h, dose 500-4000 mg/kg, time 14 day
Rattus norvegicus [22] = assay: Antiinflammatory activity against male Sprague-Dawley rat pressure ulcer model assessed as appearance of thinner epidermal layer at 0.625 to 2.5% administered as ointment by H and E staining based analysis; type: functional, organism-based
Rattus norvegicus [23] = assay: Antiinflammatory activity against male Sprague-Dawley rat pressure ulcer model assessed as wound healing rate at 0.625% administration as ointment measured after 7 days (reference value: 70%); type: functional; settings: time 7 day
Cytochrome P450 2C19 = Cytochrome P450 2C19 (Homo sapiens, UniProt P33261); assay: Inhibition of human CYP2C19; type: ADME
Chain of Cytochrome P450 2C19 (P33261 whole entry): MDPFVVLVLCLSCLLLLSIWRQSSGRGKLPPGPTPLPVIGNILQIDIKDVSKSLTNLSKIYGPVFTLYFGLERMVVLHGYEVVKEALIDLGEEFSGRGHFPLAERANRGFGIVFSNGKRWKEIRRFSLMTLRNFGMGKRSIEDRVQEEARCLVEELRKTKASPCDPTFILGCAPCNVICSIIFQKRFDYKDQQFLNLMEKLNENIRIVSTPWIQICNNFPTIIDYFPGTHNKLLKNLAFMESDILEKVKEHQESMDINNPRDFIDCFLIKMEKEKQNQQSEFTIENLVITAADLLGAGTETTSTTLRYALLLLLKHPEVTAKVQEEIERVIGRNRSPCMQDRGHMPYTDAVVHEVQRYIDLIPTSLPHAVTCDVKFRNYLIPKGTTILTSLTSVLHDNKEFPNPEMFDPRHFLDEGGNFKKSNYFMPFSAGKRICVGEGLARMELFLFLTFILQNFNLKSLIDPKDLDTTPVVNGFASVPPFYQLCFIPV

Cn1c(=O)c2c(ncn2CCC(=O)NNC(=O)c2cc3nccc(-c4ccc(OC(F)F)c(OCC5CC5)c4)n3n2)n(C)c1=O
CC50 (RAW264.7 [1]): > 90 µM | IC50 (Cytochrome P450 2C9): 24.7 µM | C0 [2]: 1140 ng/mL | Activity (Rattus norvegicus [3]): Active | bioavailability [4]: 5.5% | Tmax [5]: 15 min | Activity [6]: Non-toxic | inhibition (HUVEC): Dose-dependent-effect | IC50 [7]: > 50 µM | Activity (Rattus norvegicus [8]): 93% | AUC(0-inf) [9]: 26.8 ng·h/mL | IC50 [10]: 0.029 µM | Activity (Rattus norvegicus [11]): Active | Activity (Rattus norvegicus [12]): Active | Activity (Rattus norvegicus [13]): 81% | Activity (Rattus norvegicus [14]): Active | Activity (RAW264.7 [15]): Active | IC50 (RAW264.7 [16]): 13.3 µM | Activity [17]: Non-toxic | Activity [18]: Non-toxic | AUC(0-inf) [19]: 236 ng·h/mL | IC50 [20]: > 50 µM | Activity [21]: Non-toxic | Activity (Rattus norvegicus [22]): Active | Activity (Rattus norvegicus [23]): 78% | IC50 (Cytochrome P450 2C19): > 50 µM
